Converted amounts (≈) assume the structure as drawn.
Experiments:
[1] = molecular target: Receptor tyrosine-protein kinase erbB-2 (Homo sapiens, UniProt P04626); assay: Binding affinity to ERBB2 (unknown origin) assessed as dissociation constant by KINOMEscan analysis
[2] = Metabolic stability in rat liver microsomes assessed as intrinsic clearance; assay type: ADME, Microsome; conditions: read-out: CLH
[3] = Plasma protein binding in human assessed as unbound fraction by rapid equilibrium dialysis method; assay type: ADME, cell-free
[4] = molecular target: Tyrosine-protein kinase Blk (Homo sapiens, UniProt P51451); assay: Binding affinity to BLK (unknown origin) assessed as dissociation constant by KINOMEscan analysis
Tyrosine-protein kinase Blk, sequence (P51451 whole entry): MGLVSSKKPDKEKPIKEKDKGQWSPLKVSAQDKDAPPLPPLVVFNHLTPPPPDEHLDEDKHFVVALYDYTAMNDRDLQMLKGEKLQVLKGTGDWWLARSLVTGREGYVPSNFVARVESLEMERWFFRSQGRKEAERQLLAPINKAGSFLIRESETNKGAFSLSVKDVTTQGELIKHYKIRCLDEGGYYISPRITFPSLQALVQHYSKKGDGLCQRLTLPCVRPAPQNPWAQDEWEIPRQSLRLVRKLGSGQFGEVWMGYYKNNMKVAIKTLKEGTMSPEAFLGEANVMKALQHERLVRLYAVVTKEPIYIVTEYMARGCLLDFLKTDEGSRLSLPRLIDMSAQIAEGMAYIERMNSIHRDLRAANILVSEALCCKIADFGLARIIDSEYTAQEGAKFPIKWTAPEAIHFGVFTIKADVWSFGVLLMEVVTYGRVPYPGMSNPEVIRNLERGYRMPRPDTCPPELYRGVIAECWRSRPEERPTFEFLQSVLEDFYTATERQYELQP

[5] = molecular target: Tyrosine-protein kinase BTK (Homo sapiens, UniProt Q06187); assay: Binding affinity to BTK (unknown origin) assessed as dissociation constant by KINOMEscan analysis
Tyrosine-protein kinase BTK, sequence (Q06187 whole entry): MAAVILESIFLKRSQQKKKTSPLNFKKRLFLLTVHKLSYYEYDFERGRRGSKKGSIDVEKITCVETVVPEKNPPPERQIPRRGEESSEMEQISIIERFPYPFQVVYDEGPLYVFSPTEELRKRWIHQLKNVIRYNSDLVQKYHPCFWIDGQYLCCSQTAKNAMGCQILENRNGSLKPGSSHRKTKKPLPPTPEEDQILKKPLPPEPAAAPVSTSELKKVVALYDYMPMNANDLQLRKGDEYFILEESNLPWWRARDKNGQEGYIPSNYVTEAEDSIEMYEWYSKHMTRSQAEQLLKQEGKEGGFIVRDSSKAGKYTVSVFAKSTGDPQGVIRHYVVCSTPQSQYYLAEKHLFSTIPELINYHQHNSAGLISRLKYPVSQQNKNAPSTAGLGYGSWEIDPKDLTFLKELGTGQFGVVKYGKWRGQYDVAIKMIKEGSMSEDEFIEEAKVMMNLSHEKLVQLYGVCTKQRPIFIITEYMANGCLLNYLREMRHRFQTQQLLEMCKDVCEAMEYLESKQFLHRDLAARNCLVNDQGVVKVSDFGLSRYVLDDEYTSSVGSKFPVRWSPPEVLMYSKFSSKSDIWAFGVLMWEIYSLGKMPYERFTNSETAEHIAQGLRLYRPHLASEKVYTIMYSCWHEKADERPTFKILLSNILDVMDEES

[6] = molecular target: Epidermal growth factor receptor (Homo sapiens, UniProt P00533); assay: Binding affinity to EGFR (unknown origin) assessed as dissociation constant by KINOMEscan analysis
Epidermal growth factor receptor, sequence (P00533 whole entry): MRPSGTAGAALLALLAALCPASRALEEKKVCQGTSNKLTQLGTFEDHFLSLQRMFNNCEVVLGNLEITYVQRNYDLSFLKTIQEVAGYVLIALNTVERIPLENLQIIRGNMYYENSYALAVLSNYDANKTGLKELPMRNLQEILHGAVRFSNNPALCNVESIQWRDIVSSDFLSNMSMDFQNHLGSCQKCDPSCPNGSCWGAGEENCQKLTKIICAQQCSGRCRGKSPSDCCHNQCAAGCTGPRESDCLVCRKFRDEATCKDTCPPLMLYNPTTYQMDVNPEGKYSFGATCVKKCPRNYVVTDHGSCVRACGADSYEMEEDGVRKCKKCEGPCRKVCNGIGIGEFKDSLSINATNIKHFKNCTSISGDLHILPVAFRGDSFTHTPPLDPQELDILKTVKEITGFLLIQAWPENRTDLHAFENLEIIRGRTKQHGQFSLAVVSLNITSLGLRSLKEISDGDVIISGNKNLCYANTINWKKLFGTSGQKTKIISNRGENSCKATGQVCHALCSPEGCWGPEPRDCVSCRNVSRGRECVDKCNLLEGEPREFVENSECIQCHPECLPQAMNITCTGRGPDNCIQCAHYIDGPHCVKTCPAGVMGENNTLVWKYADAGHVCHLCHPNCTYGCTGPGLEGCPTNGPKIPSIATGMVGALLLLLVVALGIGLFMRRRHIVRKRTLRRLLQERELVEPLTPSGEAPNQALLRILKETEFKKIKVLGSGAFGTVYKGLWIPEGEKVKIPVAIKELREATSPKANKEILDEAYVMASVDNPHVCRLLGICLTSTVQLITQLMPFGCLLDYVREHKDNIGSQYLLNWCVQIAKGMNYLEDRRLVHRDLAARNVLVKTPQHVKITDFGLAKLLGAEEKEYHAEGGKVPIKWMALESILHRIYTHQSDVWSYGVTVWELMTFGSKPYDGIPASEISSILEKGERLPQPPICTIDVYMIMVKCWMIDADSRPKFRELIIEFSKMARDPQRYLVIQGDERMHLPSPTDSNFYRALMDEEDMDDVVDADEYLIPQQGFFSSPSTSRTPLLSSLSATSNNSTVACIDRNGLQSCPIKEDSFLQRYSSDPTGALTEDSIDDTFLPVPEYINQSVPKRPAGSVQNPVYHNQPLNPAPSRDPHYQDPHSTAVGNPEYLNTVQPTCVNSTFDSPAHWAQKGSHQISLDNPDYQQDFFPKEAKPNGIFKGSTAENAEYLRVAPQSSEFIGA

[7] = molecular target: T1, Tyrosine-protein kinase ITK/TSK (Homo sapiens, UniProt Q08881); assay: Binding affinity to ITK (unknown origin) assessed as dissociation constant by KINOMEscan analysis
T1 sequence (Q08881 whole entry): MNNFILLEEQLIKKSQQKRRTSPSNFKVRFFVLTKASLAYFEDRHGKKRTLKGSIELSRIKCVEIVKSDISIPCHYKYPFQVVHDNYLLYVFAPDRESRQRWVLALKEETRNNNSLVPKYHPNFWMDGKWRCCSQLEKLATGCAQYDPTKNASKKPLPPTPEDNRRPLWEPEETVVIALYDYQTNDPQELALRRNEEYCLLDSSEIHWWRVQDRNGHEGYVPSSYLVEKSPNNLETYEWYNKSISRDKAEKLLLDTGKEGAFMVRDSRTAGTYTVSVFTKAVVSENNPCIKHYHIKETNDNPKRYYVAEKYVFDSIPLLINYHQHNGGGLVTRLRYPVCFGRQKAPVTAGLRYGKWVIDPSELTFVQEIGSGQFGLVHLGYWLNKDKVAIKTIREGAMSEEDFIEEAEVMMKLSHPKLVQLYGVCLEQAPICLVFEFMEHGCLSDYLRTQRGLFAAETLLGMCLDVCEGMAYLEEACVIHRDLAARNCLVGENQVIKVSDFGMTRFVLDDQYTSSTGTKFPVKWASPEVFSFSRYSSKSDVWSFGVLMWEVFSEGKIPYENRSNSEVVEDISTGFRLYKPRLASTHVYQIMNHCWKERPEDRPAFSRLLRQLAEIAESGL

[8] = molecular target: T2, Tyrosine-protein kinase Tec (Homo sapiens, UniProt P42680); assay: Binding affinity to TEC (unknown origin) assessed as dissociation constant by KINOMEscan analysis
T2 sequence (P42680 whole entry): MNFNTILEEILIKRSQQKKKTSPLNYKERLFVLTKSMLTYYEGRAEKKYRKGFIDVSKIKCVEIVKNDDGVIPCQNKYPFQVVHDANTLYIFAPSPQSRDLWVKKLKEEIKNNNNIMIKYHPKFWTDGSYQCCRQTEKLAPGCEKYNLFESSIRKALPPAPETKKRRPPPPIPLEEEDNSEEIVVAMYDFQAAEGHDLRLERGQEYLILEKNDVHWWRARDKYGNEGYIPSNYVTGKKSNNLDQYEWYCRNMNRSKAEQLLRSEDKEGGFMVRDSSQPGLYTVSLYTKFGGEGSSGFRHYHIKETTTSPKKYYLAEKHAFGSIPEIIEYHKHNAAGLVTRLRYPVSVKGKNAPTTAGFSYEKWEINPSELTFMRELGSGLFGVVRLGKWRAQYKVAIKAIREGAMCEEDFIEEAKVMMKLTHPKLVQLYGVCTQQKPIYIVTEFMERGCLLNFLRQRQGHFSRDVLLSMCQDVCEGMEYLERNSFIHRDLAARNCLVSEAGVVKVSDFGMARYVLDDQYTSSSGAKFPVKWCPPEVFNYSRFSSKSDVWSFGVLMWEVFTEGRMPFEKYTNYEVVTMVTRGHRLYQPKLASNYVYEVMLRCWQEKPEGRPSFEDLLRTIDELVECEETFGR

[9] = molecular target: T3, Tyrosine-protein kinase TXK (Homo sapiens, UniProt P42681); assay: Binding affinity to TXK (unknown origin) assessed as dissociation constant by KINOMEscan analysis
T3 sequence (P42681 whole entry): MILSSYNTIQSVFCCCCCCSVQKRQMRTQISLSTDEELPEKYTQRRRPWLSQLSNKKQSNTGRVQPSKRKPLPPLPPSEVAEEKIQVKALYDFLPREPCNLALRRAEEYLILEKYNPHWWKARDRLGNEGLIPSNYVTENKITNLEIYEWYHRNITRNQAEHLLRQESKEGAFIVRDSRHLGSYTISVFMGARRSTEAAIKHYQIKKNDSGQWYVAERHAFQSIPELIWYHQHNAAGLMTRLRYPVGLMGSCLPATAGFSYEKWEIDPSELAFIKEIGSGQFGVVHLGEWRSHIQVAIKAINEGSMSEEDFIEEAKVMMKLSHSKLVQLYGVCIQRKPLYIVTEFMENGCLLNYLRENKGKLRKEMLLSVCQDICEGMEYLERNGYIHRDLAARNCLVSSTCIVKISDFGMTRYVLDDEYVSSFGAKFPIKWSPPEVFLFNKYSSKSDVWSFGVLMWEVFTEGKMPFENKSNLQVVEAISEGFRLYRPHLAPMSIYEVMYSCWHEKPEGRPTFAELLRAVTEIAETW

Cytochrome P450 1A2 = molecular target: T4, Cytochrome P450 1A2 (Homo sapiens, UniProt P05177); assay: Inhibition of human CYP1A2; assay type: ADME
T4 sequence (P05177 whole entry): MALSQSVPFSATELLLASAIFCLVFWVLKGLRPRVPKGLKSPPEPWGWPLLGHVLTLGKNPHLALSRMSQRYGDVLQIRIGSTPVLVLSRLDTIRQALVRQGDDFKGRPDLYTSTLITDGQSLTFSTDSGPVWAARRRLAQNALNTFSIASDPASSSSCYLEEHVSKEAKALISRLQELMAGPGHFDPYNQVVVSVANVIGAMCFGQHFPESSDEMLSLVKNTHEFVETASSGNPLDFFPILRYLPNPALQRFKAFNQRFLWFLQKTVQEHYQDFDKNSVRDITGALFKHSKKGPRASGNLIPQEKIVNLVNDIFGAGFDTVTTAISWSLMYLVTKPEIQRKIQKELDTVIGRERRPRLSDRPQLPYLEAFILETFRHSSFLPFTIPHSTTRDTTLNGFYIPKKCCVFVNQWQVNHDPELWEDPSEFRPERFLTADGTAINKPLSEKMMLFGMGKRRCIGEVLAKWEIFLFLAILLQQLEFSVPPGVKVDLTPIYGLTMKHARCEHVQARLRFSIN

Cytochrome P450 3A4 = Cytochrome P450 3A4 (Homo sapiens, UniProt P08684); assay: Inhibition of human CYP3A4; assay type: ADME
Cytochrome P450 3A4, sequence (P08684 whole entry): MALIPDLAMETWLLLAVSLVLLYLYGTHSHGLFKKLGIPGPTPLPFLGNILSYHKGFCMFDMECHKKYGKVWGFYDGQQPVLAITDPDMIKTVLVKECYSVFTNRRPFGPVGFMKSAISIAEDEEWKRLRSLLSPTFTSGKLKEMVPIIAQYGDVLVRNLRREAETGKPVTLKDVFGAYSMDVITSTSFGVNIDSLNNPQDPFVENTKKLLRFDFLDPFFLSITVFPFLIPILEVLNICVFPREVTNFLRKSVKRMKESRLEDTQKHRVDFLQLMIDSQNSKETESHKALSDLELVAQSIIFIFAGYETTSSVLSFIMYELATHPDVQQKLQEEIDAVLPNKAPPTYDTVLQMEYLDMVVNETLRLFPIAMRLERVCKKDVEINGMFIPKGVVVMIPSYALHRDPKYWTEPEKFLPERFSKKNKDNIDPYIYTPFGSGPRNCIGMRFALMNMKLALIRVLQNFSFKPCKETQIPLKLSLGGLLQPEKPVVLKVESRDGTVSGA

BCRP = assay: Permeability across apical to basolateral side in dog MDCK-BCRP cells; assay type: ADME, cell-based, Canis lupus familiaris; conditions: read-out: permeability
MDR1 = assay: Permeability across apical to basolateral side in dog MDCK-MDR1 cells; assay type: ADME, cell-based, Canis lupus familiaris; conditions: read-out: permeability
[10] = Kinetic aqueous solubility of the compound at pH 6.8 by shake flask assay; assay type: physicochemical; conditions: read-out: Kinetic_solubility
[11] = Kinetic aqueous solubility of the compound at pH 1.5 by shake flask assay; assay type: physicochemical; conditions: read-out: Kinetic_solubility

Receptor tyrosine-protein kinase erbB-2, sequence (P04626 whole entry): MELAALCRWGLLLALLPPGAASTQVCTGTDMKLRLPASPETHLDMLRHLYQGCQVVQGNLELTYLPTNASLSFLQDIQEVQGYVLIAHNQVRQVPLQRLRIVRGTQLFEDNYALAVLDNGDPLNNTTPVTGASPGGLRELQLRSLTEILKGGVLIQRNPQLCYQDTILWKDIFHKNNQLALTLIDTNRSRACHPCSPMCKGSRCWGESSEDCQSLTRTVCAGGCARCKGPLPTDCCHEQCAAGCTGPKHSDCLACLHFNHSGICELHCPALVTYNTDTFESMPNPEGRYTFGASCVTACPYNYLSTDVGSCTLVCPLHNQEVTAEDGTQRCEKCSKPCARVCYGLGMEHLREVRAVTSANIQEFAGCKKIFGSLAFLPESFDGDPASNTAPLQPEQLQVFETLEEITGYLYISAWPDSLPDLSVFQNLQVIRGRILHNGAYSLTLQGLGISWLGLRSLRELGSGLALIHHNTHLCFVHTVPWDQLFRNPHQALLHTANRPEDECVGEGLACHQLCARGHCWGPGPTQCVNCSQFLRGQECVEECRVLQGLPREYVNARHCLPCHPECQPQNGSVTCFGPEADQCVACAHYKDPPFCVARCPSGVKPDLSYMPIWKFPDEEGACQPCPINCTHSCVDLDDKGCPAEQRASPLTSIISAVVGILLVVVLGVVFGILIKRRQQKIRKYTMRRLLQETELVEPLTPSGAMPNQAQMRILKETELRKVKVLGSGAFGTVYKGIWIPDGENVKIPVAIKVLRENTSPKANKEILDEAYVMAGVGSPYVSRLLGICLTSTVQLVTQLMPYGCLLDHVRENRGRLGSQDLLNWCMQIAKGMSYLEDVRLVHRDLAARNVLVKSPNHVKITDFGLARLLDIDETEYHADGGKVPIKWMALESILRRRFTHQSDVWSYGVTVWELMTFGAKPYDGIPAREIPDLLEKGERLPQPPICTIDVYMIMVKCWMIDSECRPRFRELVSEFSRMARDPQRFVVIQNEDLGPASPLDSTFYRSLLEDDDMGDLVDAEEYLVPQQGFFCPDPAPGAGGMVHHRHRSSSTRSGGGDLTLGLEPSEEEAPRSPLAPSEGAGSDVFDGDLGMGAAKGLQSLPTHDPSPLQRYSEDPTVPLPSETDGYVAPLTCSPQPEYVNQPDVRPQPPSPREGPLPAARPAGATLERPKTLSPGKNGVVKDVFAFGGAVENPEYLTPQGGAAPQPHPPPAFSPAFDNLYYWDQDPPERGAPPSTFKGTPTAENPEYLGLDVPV

Kd [1]: 20 µM | CLint scaled [2]: 154 mL/min/kg | fraction unbound [3]: 0.227 | Kd [4]: 10 µM | Kd [5]: 0.00091 µM | Kd [6]: 30 µM | Kd [7]: 30 µM | Kd [8]: 0.24 µM | Kd [9]: 6.5 µM | IC50 (Cytochrome P450 1A2): > 10 µM | IC50 (Cytochrome P450 3A4): > 10 µM | Papp A→B (BCRP): 0.4 ×10⁻⁶ cm/s | Papp A→B (MDR1): 0.32 ×10⁻⁶ cm/s | solubility kinetic [10]: 49 µg/mL (≈ 102 µM) | solubility kinetic [11]: 73 µg/mL (≈ 152 µM)
SMILES: C=CC(=O)N(C)CCOc1c(N)ncnc1-c1ccc(CN2CCN(CC(C)C)CC2=O)c(C)c1

Source: ChEMBL document CHEMBL5131445, “Optimization of a novel piperazinone series as potent selective peripheral covalent BTK inhibitors” (Bioorg Med Chem Lett, 2022)
